Reference: article PMC10518257 (Nature Cancer, 2023)

How the values were obtained:
Experiment in all cases: Kinase selectivity profiling at a single concentration (Carna Biosciences)
Format in all cases: biochemical
[1] = target: T1, panel of 255 (vepafestinib) or 256 (all other inhibitors) recombinant kinases (Homo sapiens, UniProt P12931); conditions: 17 nM
T1 construct: purchased Carna Biosciences

[2] = target: T2, panel of 255 (vepafestinib) or 256 (all other inhibitors) recombinant kinases (Homo sapiens, UniProt P07333); conditions: 17 nM
T2 construct: purchased Carna Biosciences

[3] = target: T3, panel of 255 (vepafestinib) or 256 (all other inhibitors) recombinant kinases (Homo sapiens, UniProt O60674); conditions: 17 nM
T3 construct: purchased Carna Biosciences

[4] = target: T4, panel of 255 (vepafestinib) or 256 (all other inhibitors) recombinant kinases (Homo sapiens, UniProt P23458); conditions: 17 nM
T4 construct: purchased Carna Biosciences

[5] = target: T5, panel of 255 (vepafestinib) or 256 (all other inhibitors) recombinant kinases (Homo sapiens, UniProt Q16288); conditions: 17 nM
T5 construct: purchased Carna Biosciences

[6] = target: T6, panel of 255 (vepafestinib) or 256 (all other inhibitors) recombinant kinases (Homo sapiens, UniProt P08922); conditions: 17 nM
T6 construct: purchased Carna Biosciences

[7] = target: T7, panel of 255 (vepafestinib) or 256 (all other inhibitors) recombinant kinases (Homo sapiens, UniProt Q16832); conditions: 17 nM
T7 construct: purchased Carna Biosciences

[8] = target: T8, panel of 255 (vepafestinib) or 256 (all other inhibitors) recombinant kinases (Homo sapiens, UniProt P41743); conditions: 22 nM
T8 construct: purchased Carna Biosciences

[9] = target: T9, panel of 255 (vepafestinib) or 256 (all other inhibitors) recombinant kinases (Homo sapiens, UniProt Q92630); conditions: 22 nM
T9 construct: purchased Carna Biosciences

[10] = target: T10, panel of 255 (vepafestinib) or 256 (all other inhibitors) recombinant kinases (Homo sapiens, UniProt P24941); conditions: 22 nM
T10 construct: purchased Carna Biosciences

[11] = target: T11, panel of 255 (vepafestinib) or 256 (all other inhibitors) recombinant kinases (Homo sapiens, UniProt P30530); conditions: 22 nM
T11 construct: purchased Carna Biosciences

[12] = target: T12, panel of 255 (vepafestinib) or 256 (all other inhibitors) recombinant kinases (Homo sapiens, UniProt Q9UF33); conditions: 22 nM
T12 construct: purchased Carna Biosciences

[13] = target: T13, panel of 255 (vepafestinib) or 256 (all other inhibitors) recombinant kinases (Homo sapiens, UniProt Q7KZI7); conditions: 23 nM
T13 construct: purchased Carna Biosciences

[14] = target: T14, panel of 255 (vepafestinib) or 256 (all other inhibitors) recombinant kinases (Homo sapiens, UniProt P07948); conditions: 23 nM
T14 construct: purchased Carna Biosciences

[15] = target: T15, panel of 255 (vepafestinib) or 256 (all other inhibitors) recombinant kinases (Homo sapiens, UniProt Q9P0L2); conditions: 23 nM
T15 construct: purchased Carna Biosciences

[16] = target: T16, panel of 255 (vepafestinib) or 256 (all other inhibitors) recombinant kinases (Homo sapiens, UniProt P42684); conditions: 23 nM
T16 construct: purchased Carna Biosciences

[17] = target: T17, panel of 255 (vepafestinib) or 256 (all other inhibitors) recombinant kinases (Homo sapiens, UniProt Q15303); conditions: 23 nM
T17 construct: purchased Carna Biosciences

[18] = target: T18, panel of 255 (vepafestinib) or 256 (all other inhibitors) recombinant kinases (Homo sapiens, UniProt P29376); conditions: 23 nM
T18 construct: purchased Carna Biosciences

[19] = target: T19, panel of 255 (vepafestinib) or 256 (all other inhibitors) recombinant kinases (Homo sapiens, UniProt P31749); conditions: 23 nM
T19 construct: purchased Carna Biosciences

[20] = target: T20, panel of 255 (vepafestinib) or 256 (all other inhibitors) recombinant kinases (Homo sapiens, UniProt Q9P286); conditions: 23 nM
T20 construct: purchased Carna Biosciences

[21] = target: T21, panel of 255 (vepafestinib) or 256 (all other inhibitors) recombinant kinases (Homo sapiens, UniProt Q9NQU5); conditions: 23 nM
T21 construct: purchased Carna Biosciences

[22] = target: T22, panel of 255 (vepafestinib) or 256 (all other inhibitors) recombinant kinases (Homo sapiens, UniProt P17252); conditions: 23 nM
T22 construct: purchased Carna Biosciences

[23] = target: T23, panel of 255 (vepafestinib) or 256 (all other inhibitors) recombinant kinases (Homo sapiens, UniProt Q13177); conditions: 23 nM
T23 construct: purchased Carna Biosciences

[24] = target: T24, panel of 255 (vepafestinib) or 256 (all other inhibitors) recombinant kinases (Homo sapiens, UniProt Q9Y6E0); conditions: 23 nM
T24 construct: purchased Carna Biosciences

T6 sequence (P08922 28-2347): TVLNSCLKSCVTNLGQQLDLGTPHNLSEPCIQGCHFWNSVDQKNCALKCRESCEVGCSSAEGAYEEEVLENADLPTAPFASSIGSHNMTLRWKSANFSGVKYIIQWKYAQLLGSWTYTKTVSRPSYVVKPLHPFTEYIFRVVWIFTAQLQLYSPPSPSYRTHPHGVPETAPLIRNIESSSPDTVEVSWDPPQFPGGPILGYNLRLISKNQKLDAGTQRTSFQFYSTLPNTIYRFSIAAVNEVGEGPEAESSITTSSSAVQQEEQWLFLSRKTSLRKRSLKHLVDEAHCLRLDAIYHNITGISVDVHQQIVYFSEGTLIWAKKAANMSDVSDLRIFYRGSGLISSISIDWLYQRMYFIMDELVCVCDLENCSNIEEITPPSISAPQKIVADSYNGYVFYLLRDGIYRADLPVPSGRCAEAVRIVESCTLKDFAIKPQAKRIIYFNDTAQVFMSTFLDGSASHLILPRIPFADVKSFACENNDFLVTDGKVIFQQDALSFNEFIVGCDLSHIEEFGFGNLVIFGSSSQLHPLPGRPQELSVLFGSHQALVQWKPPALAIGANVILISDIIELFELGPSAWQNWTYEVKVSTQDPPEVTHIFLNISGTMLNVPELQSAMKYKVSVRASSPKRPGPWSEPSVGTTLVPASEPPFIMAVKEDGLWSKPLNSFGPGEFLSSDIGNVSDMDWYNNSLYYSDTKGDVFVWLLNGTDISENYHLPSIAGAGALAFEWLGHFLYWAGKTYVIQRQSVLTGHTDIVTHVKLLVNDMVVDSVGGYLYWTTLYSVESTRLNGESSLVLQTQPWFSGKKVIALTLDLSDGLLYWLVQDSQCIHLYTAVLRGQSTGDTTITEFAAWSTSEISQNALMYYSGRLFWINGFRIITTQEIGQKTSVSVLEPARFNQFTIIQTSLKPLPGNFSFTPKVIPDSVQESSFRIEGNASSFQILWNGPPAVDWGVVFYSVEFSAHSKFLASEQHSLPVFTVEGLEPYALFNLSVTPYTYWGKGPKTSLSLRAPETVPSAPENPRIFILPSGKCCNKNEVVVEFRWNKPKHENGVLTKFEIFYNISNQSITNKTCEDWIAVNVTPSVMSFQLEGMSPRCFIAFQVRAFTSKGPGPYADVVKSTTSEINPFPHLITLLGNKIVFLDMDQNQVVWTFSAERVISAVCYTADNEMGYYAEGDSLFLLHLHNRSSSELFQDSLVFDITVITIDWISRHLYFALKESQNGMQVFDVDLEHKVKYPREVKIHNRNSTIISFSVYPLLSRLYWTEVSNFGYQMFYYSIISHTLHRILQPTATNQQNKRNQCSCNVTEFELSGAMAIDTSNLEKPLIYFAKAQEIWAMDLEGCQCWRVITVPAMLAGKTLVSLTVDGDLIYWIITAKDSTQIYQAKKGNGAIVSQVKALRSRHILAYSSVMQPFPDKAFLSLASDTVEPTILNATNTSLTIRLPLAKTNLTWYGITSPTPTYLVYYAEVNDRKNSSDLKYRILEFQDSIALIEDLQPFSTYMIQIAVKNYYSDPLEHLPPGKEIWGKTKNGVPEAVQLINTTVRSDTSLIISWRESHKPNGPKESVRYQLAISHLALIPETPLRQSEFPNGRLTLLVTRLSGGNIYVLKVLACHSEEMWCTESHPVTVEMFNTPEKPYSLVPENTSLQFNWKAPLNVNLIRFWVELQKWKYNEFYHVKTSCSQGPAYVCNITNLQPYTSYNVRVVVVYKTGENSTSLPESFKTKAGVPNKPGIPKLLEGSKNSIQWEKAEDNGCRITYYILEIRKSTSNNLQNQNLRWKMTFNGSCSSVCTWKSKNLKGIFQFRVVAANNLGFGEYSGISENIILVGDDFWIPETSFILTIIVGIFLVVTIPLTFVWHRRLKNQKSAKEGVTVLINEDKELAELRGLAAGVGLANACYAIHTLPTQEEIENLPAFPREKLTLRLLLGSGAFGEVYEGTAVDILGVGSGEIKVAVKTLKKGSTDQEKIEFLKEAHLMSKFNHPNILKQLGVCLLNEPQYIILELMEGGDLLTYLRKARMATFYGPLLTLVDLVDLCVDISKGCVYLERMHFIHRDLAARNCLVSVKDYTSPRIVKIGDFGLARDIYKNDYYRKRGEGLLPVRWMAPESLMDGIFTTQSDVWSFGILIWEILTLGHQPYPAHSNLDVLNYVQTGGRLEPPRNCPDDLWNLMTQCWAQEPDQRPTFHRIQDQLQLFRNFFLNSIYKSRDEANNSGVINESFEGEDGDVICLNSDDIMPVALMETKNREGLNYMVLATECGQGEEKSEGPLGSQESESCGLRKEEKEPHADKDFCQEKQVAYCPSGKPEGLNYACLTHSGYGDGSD
T3 sequence (O60674 whole entry): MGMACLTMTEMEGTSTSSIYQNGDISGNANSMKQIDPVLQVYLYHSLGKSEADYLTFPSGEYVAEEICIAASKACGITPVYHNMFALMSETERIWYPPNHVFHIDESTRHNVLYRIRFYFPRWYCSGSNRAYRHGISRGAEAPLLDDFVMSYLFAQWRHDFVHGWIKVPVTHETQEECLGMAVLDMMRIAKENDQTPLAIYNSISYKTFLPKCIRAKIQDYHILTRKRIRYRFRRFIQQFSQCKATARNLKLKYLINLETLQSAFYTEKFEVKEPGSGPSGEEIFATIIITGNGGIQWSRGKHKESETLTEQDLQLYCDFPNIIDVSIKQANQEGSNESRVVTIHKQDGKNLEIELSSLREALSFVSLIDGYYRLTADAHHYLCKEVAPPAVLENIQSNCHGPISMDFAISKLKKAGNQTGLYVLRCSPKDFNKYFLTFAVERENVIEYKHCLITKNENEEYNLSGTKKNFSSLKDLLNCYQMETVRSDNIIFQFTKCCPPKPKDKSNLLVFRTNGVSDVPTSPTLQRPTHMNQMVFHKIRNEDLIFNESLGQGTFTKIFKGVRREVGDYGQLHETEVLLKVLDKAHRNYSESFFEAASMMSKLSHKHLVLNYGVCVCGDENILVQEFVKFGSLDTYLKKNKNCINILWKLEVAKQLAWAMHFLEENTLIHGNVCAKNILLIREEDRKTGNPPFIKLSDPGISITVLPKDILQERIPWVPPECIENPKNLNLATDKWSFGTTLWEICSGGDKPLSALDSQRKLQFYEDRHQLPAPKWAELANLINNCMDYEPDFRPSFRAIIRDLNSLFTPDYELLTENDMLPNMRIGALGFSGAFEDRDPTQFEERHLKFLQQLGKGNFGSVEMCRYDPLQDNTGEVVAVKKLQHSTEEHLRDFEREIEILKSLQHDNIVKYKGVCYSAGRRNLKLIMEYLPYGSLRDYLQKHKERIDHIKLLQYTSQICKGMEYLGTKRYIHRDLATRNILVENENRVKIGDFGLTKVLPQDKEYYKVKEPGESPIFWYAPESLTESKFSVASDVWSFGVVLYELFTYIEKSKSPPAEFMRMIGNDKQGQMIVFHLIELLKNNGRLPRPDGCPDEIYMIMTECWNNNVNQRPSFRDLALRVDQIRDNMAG
T19 sequence (P31749 whole entry): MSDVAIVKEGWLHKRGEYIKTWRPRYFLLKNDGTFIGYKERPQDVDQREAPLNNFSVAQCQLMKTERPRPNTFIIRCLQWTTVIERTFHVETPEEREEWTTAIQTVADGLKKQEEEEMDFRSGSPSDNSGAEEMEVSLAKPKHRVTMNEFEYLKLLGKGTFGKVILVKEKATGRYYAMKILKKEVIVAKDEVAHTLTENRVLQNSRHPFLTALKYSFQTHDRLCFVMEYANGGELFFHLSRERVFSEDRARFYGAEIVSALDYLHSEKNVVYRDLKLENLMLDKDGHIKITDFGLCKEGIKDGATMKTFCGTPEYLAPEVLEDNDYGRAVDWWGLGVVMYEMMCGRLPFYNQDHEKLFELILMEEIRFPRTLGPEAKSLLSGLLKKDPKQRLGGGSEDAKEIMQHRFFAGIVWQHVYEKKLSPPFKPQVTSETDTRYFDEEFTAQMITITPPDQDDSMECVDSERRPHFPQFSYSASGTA
T15 sequence (Q9P0L2 whole entry): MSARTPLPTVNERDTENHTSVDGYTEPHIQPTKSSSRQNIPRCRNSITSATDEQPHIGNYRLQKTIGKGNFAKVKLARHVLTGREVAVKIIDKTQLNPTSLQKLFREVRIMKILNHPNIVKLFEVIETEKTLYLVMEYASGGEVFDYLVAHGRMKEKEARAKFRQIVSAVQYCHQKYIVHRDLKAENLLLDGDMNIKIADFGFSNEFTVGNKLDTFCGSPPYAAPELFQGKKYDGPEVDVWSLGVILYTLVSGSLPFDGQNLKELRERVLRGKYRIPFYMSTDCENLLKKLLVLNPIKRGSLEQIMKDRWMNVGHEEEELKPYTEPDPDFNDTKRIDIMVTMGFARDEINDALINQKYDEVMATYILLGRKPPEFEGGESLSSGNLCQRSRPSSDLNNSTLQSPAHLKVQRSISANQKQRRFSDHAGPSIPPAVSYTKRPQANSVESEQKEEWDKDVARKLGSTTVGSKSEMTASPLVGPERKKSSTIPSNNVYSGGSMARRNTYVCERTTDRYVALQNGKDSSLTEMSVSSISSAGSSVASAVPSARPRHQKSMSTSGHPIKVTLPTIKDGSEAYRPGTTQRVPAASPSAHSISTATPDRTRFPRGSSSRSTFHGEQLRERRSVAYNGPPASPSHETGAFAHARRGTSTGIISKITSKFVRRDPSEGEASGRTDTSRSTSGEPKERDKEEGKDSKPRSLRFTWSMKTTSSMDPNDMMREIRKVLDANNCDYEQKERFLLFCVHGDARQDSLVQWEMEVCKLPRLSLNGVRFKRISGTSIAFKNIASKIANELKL

CO[C@]1(C(=O)N[C@@H](C)c2ccc(-n3cc(F)cn3)nc2)CC[C@H](c2nc(C)cc(Nc3cc(C)[nH]n3)n2)CC1 [Pralsetinib]
% Inhibiton SRC [1]: 34.5%
% Inhibiton FMS [2]: 25.5%
% Inhibiton JAK2 [3]: 101.5%
% Inhibiton JAK1 [4]: 89.1%
% Inhibiton TRKC [5]: 57.7%
% Inhibiton ROS [6]: 40%
% Inhibiton DDR2 [7]: 72.5%

COc1ccc(CN2C3CC2CN(c2ccc(-c4cc(OCC(C)(C)O)cn5ncc(C#N)c45)cn2)C3)cn1 [Selpercatinib]
% Inhibiton PKCι [8]: 12.7%
% Inhibiton DYRK2 [9]: 17.3%
% Inhibiton CDK2/CycA2 [10]: 17.9%
% Inhibiton AXL [11]: 18.1%
% Inhibiton EPHA6 [12]: 17.3%

COCc1ccc(NC(=O)c2c(C#CCN3CCOCC3)n(C3(C)CC3)c3ncnc(N)c23)cc1 [Vepafestinib, 4-amino-N-[4-(methoxymethyl)phenyl]-7-(1-methylcyclopropyl)-6-[3-(morpholin-4-yl)prop-1-yn-1-yl]-7H-pyrrolo[2,3-d]pyrimidine-5-carboxamide]
% Inhibiton MARK2 [13]: 14.1%
% Inhibiton LYNa [14]: 6.7%
% Inhibiton MARK1 [15]: 6.5%
% Inhibiton ARG [16]: 7.3%
% Inhibiton HER4 [17]: 9.5%
% Inhibiton LTK [18]: 11.3%
% Inhibiton AKT1 [19]: 7.9%
% Inhibiton PAK5 [20]: 10.8%
% Inhibiton PAK6 [21]: 7.4%
% Inhibiton PKCα [22]: 9.1%
% Inhibiton PAK2 [23]: 19%
% Inhibiton MST3 [24]: 13.4%
